Assay results published in US20020193441A1, “Prostanoid therapies for the treatment of glaucoma” (priority 2001, published 2002).

Legend:
[1] = tested on: patients with open-angle glaucoma or ocular hypertension; assay: Clinical studies of travoprost (six, nine and twelve month studies pooled): IOP in black v. non-black patients; assay type: in vivo, human; settings: for Mean IOP (overall) / IOP change from baseline: combined over visit and time of day; for Mean IOP (overall): pooled; for IOP change from baseline: three studies pooled, intent-to-treat
Method: The ability of travoprost to lower IOP was evaluated in three separate clinical trials, each involving the evaluation of both a low (0.0015%) and a high (0.004%) concentration composition. The studies differed in length, one lasting six months (hereinafter “six month study”), one lasting nine months (hereinafter “nine month study”) and one lasting twelve months (hereinafter “twelve month study”). The twelve month study was a triple-masked, parallel group, primary therapy study of the safety and efficacy of travoprost 0.0015% and travoprost 0.004% compared to timolol 0.5% and latanoprost 0.005% in patients with open-angle glaucoma or ocular hypertension. The term triple-masked is synonymous with the ICH E3 definition of double-blind. Patients of any race and either sex with open-angle glaucoma (with or without dispersion or pseudoexfoliation component) or ocular hypertension were qualified to participate in the studies. Pursuant to the study protocol, one group received travoprost 0.0015% topical ocular solution and dropped one drop once-daily in each eye at 8:00 p.m. A second group received travoprost 0.004% topical ocular solution and dropped one drop, once-daily in each eye at 8:00 p.m. A third group received vehicle only (placebo) and dropped one drop, once-daily in each eye at 8:00 a.m. A fourth group received timolol 0.5% topical ocular solution and dropped one drop, twice-daily in each eye at 8:00 a.m. and 8:00 p.m. A fifth group received latanoprost 0.005% topical ocular solution and dropped one drop, once-daily in each eye at 8:00 p.m. For evaluation purposes, the primary efficacy variable was mean intraocular pressure (IOP) in patient's worse eye. Safety was based on ocular and systemic parameters including hyperemia, flare, iris color, visual acuity, slit-lamp examinations, endothelial cell density, pachymetry, blood pressure and pulse, laboratory assessments, dilated fundus examinations, automated perimetry and adverse events. Repeated measures analysis of variance was used to test differences among treatment groups and to calculate 95% confidence limits about the differences between groups. The six month study was a triple-masked, parallel group, primary therapy study of the safety and efficacy of travoprost 0.0015% and travoprost 0.004% compared to timolol 0.5% in patients with open-angle glaucoma or ocular hypertension. The term triple-masked is synonymous with the ICH E3 definition of double-blind. Patients of any race and either sex with open-angle glaucoma (with or without dispersion or pseudoexfoliation component) or ocular hypertension were qualified to participate in the studies. Pursuant to the study protocol, one group received travoprost 0.0015% topical ocular solution and dropped one drop once-daily in each eye at 8:00 p.m. A second group received travoprost 0.004% topical ocular solution and dropped one drop, once-daily in each eye at 8:00 p.m. A third group received vehicle only (placebo) and dropped one drop, once-daily in each eye at 8:00 a.m. A fourth group received timolol 0.5% topical ocular solution and dropped one drop, twice-daily in each eye at 8:00 a.m. and 8:00 p.m. For evaluation purposes, the primary efficacy variable was mean intraocular pressure (IOP) in patient's worse eye. Safety was based on ocular and systemic parameters including hyperemia, aqueous cells and flare, iris pigmentation, visual acuity, slit-lamp biomicroscopy, blood pressure and pulse, laboratory assessments, dilated fundus examinations, automated perimetry and adverse events. Repeated measures analysis of variance was used to test differences among treatment groups and to calculate 95% confidence limits about the differences between groups. The nine month study was a triple-masked, parallel group, primary therapy study of the safety and efficacy of travoprost 0.0015% and travoprost 0.004% compared to timolol 0.5% and latanoprost 0.005% in patients with open-angle glaucoma or ocular hypertension. […]

[2] = tested on: black and non-black patients; assay: Dose-response evaluations: travoprost concentration and IOP response in black and non-black patients; assay type: in vivo, human
Description: Dose-response studies were undertaken to evaluate the relationship between travoprost and IOP response in black and non-black patients. […] FIG. 1 depicts the relationship between log concentration and IOP for black patients versus non-black patients. For black patients, IOP went from approximately 28 mmHg at a concentration of 0.00009% travoprost to approximately 18.5 mmHg at 0.004% travoprost. For non-black patients, IOP went from approximately 23 mmHg at 0.00009% travoprost to approximately 18 mmHg at 0.004% travoprost. FIG. 2 depicts the relationship between log concentration and IOP change. IOP change went from approximately −1 mmHg to approximately −7.75 mmHg for black patients and from approximately −3.25 mmHg to approximately −7.25 mmHg for non-black patients. FIGS. 1 and 2 depict a comparison of IOP or IOP change to log concentration to illustrate the significance of the dose-response difference between the two groups. FIGS. 3 and 4 depict the same relationships using actual concentrations.

[3] = travoprost 0.0015%, black patients
[4] = travoprost 0.0015%, non-black patients
[5] = travoprost 0.004%, black patients
[6] = travoprost 0.004%, non-black patients

## CC(C)OC(=O)CCC/C=C\C[C@@H]1[C@@H](/C=C/[C@@H](O)COc2cccc(C(F)(F)F)c2)[C@H](O)C[C@@H]1O [Travoprost, travoprost]
[1]; blacks
  Further IOP reduction when dose increased from 0.0015% to 0.004%: statistically significant further reduction
[1]; caucasians (non-blacks)
  Further IOP reduction when dose increased from 0.0015% to 0.004%: no further reduction
[1]; travoprost 0.0015% analysis
  Subgroup difference in mean IOP between black and non-black patients (analysis of variance): No statistically significant subgroup differences
[1]; travoprost 0.0015% dose
  Difference in IOP change from baseline between blacks and non-blacks: no significant difference
[1]; travoprost 0.0015%, black patients, 4 p.m.
  Mean IOP (combined over visit): 17.8 mmHg
[1]; travoprost 0.0015%, black patients, 8 a.m.
  Mean IOP (combined over visit): 19.6 mmHg
[1]; travoprost 0.0015%, black patients, 10 a.m.
  Mean IOP (combined over visit): 18.4 mmHg
[1]; [3]
  Mean IOP (overall): 18.6 mmHg
  IOP change from baseline: −7.1 mmHg
[1]; travoprost 0.0015%, non-black patients, 4 p.m.
  Mean IOP (combined over visit): 18.2 mmHg
[1]; travoprost 0.0015%, non-black patients, 8 a.m.
  Mean IOP (combined over visit): 19.4 mmHg
[1]; travoprost 0.0015%, non-black patients, 10 a.m.
  Mean IOP (combined over visit): 18.5 mmHg
[1]; [4]
  Mean IOP (overall): 18.7 mmHg
  IOP change from baseline: −7.1 mmHg
[1]; travoprost 0.004% analysis
  Subgroup difference in mean IOP between black and non-black patients (analysis of variance): significant subgroup difference
[1]; travoprost 0.004%, 4 PM
  Subgroup difference in mean IOP, black lower than non-black: 1.1 mmHg
[1]; travoprost 0.004%, 8 AM
  Subgroup difference in mean IOP, black lower than non-black: 0.8 mmHg
[1]; travoprost 0.004%, 10 AM
  Subgroup difference in mean IOP, black lower than non-black: 1.5 mmHg
[1]; travoprost 0.004%, black patients, 4 p.m.
  Mean IOP (combined over visit): 16.8 mmHg
[1]; travoprost 0.004%, black patients, 8 a.m.
  Mean IOP (combined over visit): 18.6 mmHg
[1]; travoprost 0.004%, black patients, 10 a.m.
  Mean IOP (combined over visit): 16.8 mmHg
[1]; [5]
  Mean IOP (overall): 17.4 mmHg
  IOP change from baseline: −8.1 mmHg
[1]; travoprost 0.004%, combined (8 a.m., 10 a.m., and 4 p.m.) results
  Difference in mean IOP, black lower than non-black: up to 1.5 mmHg
[1]; travoprost 0.004%, non-black patients, 4 p.m.
  Mean IOP (combined over visit): 18.0 mmHg
[1]; travoprost 0.004%, non-black patients, 8 a.m.
  Mean IOP (combined over visit): 19.3 mmHg
[1]; travoprost 0.004%, non-black patients, 10 a.m.
  Mean IOP (combined over visit): 18.3 mmHg
[1]; [6]
  Mean IOP (overall): 18.5 mmHg
  IOP change from baseline: −7.5 mmHg
[1]; travoprost 0.004%, overall result
  Difference in mean IOP, black lower than non-black: 1.1 mmHg
[2]; 0.00009% travoprost, black patients
  IOP (FIG. 1): approximately 28 mmHg
[2]; 0.00009% travoprost, non-black patients
  IOP (FIG. 1): approximately 23 mmHg
[2]; 0.004% travoprost, black patients
  IOP (FIG. 1): approximately 18.5 mmHg
[2]; 0.004% travoprost, non-black patients
  IOP (FIG. 1): approximately 18 mmHg
[2]; black patients compared with non-black patients
  Dose-response based on comparison slopes: much more pronounced dose-response
[2]; black patients, high end of concentration range ('to')
  IOP change (FIG. 2): approximately −7.75 mmHg
[2]; black patients, low end of concentration range ('from')
  IOP change (FIG. 2): approximately −1 mmHg
[2]; both race subgroups
  Mean IOP versus dose: reduced significantly with increasing dose
[2]; non-black patients, high end of concentration range ('to')
  IOP change (FIG. 2): approximately −7.25 mmHg
[2]; non-black patients, low end of concentration range ('from')
  IOP change (FIG. 2): approximately −3.25 mmHg
